This note sets out measurements from patent US4272437A, “Antibacterial agents, and 4-thio azetidinone intermediates” (priority 1979, dated 1981).

In brackets after ≈: the same amount, converted by molar mass.

The test system of assay [1] is E. coli A-20341-1. Put plainly: MIC, tube dilution, Escherichia coli A20341-1. The conditions noted are these: E. coli A20341-1, overnight 37° C.; for MIC: Escherichia coli, A203411, read-out: Minimum Inhibitory Concentration (M.I.C.). The format is cell-based. From the text:
(§1) Representative compounds of the present invention were subjected to in vitro antibiotic screening against a variety of microorganisms.

In assay [2] the test system is K. pneumoniae A-15130. Put plainly: MIC, tube dilution, Klebsiella pneumoniae A15130. The assay is classed as cell-based. The settings on record: overnight 37° C.; for MIC: Klebsiella pneumoniae, A15130, K. pneumoniae A15130, read-out: Minimum Inhibitory Concentration (M.I.C.).
Excerpt: as §1

The test system of assay [3] is Ent. cloacae A-9656. The assay can be described thus: MIC, tube dilution, Enterobacter cloacae A9656. The assay is classed as cell-based. The settings on record: Enterobacter cloacae A9656, overnight 37° C.; for MIC: read-out: Minimum Inhibitory Concentration (M.I.C.).
Excerpt: as §1

Assay [4] has as its system Ser. marcescens A-20019. The assay can be described thus: MIC, tube dilution, Serratia marcescens A20019. The assay is classed as cell-based. The settings on record: overnight 37° C.; for MIC: Serratia marcescens, A20019, Serratia marcescens A20019, read-out: Minimum Inhibitory Concentration (M.I.C.).
Excerpt: as §1

Assay [5] relates to Staph. aureus (Pen-Res) A-9606. Put plainly: MIC, tube dilution, Staphylococcus aureus A9606 (Pen-Res). The conditions noted are these: overnight 37° C.; for MIC: Staphylococcus aureus, read-out: Minimum Inhibitory Concentration (M.I.C.), Staph. aureus A9606 (Pen-Res). The format is cell-based.
Excerpt: as §1

Assay [6] deals with Pr. morganii A-15153. Put plainly: MIC, tube dilution, Proteus morganii A15153. The format is cell-based. The conditions noted are these: overnight 37° C.; for MIC: Morganella morganii, A15153, Proteus morganii A15153, read-out: Minimum Inhibitory Concentration (M.I.C.).
Excerpt: as §1

The test system of assay [7] is Ps. aeruginosa A-9843A. The assay can be described thus: MIC, tube dilution, Pseudomonas aeruginosa A9843A. The format is cell-based. The conditions noted are these: overnight 37° C.; for MIC: Pseudomonas aeruginosa, A9843A, read-out: Minimum Inhibitory Concentration (M.I.C.), Pseudomonas aeruginosa A9843A.
Excerpt: as §1

Assay [8] concerns Ent. cloacae A-9659. The assay can be described thus: MIC, tube dilution, Enterobacter cloacae A9659. The format is cell-based. The conditions noted are these: overnight 37° C.; for MIC: Enterobacter cloacae, A9659, Enterobacter cloacae A9659, read-out: Minimum Inhibitory Concentration (M.I.C.).
Excerpt: as §1

Assay [9] deals with Staph. aureus A-9537 and 50% serum. The assay can be described thus: MIC, tube dilution, Staph. aureus A9537 + 50% serum. The assay is classed as cell-based, Staphylococcus aureus. The settings on record: overnight 37° C.; for MIC: Staphylococcus aureus, read-out: Minimum Inhibitory Concentration (M.I.C.).
Excerpt: as §1

For assay [10], the system named is Proteus rettgeri A21203. The assay can be described thus: MIC, tube dilution, Proteus rettgeri A21203. The format is cell-based. The conditions noted are these: Proteus rettgeri A21203, overnight 37° C.; for MIC: Providencia rettgeri, read-out: Minimum Inhibitory Concentration (M.I.C.).
Excerpt: as §1

For assay [11], the system named is Staph. aureus (Meth-Res) A-15097. The assay can be described thus: MIC, tube dilution, Staphylococcus aureus A15097 (Meth-Res). The format is cell-based. The conditions noted are these: overnight 37° C.; for MIC: Staphylococcus aureus, read-out: Minimum Inhibitory Concentration (M.I.C.), Staph. aureus A15097 (Meth-Res).
Excerpt: as §1

Assay [12] deals with E. coli A-15119. Put plainly: MIC, tube dilution, Escherichia coli A15119. The format is cell-based. The settings on record: overnight 37° C.; for MIC: Escherichia coli, A15119, E. coli A15119, read-out: Minimum Inhibitory Concentration (M.I.C.).
Excerpt: as §1

For assay [13], the system named is Str. pyogenes A-9604. Put plainly: MIC, tube dilution, Streptococcus pyogenes A9604. The assay is classed as cell-based. The conditions noted are these: overnight 37° C., Nutrient Broth; for MIC: Streptococcus pyogenes, A9604, Str. pyogenes A9604, read-out: Minimum Inhibitory Concentration (M.I.C.).
Excerpt: as §1

The subject of assay [14] is Ps. aeruginosa A-21213. Put plainly: MIC, tube dilution, Pseudomonas aeruginosa A21213. The conditions noted are these: Pseudomonas aeruginosa A21213, overnight 37° C.; for MIC: read-out: Minimum Inhibitory Concentration (M.I.C.). The format is cell-based.
Excerpt: as §1

For assay [15], the system named is Str. faecalis A-20688. The assay can be described thus: MIC, tube dilution, Streptococcus faecalis A20688. The format is cell-based. The conditions noted are these: overnight 37° C.; for MIC: Enterococcus faecalis, A20688, Str. faecalis A20688, read-out: Minimum Inhibitory Concentration (M.I.C.).
Excerpt: as §1

Assay [16] relates to Klebsiella species A20468. The assay can be described thus: MIC, tube dilution, Klebsiella species A20468. The assay is classed as cell-based. The settings on record: Klebsiella species (K. pneumoniae) A20468, overnight 37° C.; for MIC: read-out: Minimum Inhibitory Concentration (M.I.C.).
Excerpt: as §1

The subject of assay [17] is Proteus vulgaris A9555. The assay can be described thus: MIC, tube dilution, Proteus vulgaris (mirabilis) A9555. The format is cell-based. The settings on record: overnight 37° C.; for MIC: read-out: Minimum Inhibitory Concentration (M.I.C.).
Excerpt: as §1

Assay [18] deals with Pr. mirabilis A-9900. The assay can be described thus: MIC, tube dilution, Proteus mirabilis A9900. The format is cell-based. The settings on record: overnight 37° C.; for MIC: Proteus mirabilis, A9900, Proteus mirabilis A9900, read-out: Minimum Inhibitory Concentration (M.I.C.).
Excerpt: as §1

Assay [19] deals with Str. pneumoniae A-9585. The assay can be described thus: MIC, tube dilution, Streptococcus pneumoniae A9585. The format is cell-based. The conditions noted are these: overnight 37° C., Nutrient Broth; for MIC: Streptococcus pneumoniae, A9585, Str. pneumoniae A9585, read-out: Minimum Inhibitory Concentration (M.I.C.).
Excerpt: as §1

The test system of assay [20] is Staph. aureus A-9537. Put plainly: MIC, tube dilution, Staphylococcus aureus A9537. The assay is classed as cell-based. The conditions noted are these: overnight 37° C., Nutrient Broth; for MIC: Staphylococcus aureus, A9537, Staph. aureus A9537, read-out: Minimum Inhibitory Concentration (M.I.C.).
Excerpt: as §1

In the case of `O=C([O-])C1=C(c2cccnc2)S[C@@H]2CC(=O)N12.[Na+]` [Example 53, Sodium 2-(3-Pyridyl)penem-3-carboxylate], the MIC in [1] was 63 µg/mL; in [2] it was 16 µg/mL; in assay [3], 32 µg/mL; in assay [4], 8 µg/mL; in assay [5], 8 µg/mL; in assay [6] it was 8 µg/mL. Moreover, the MIC is 125 µg/mL in assay [7]; 16 µg/mL in [8]; greater than 63 µg/mL in [9]; 2 µg/mL in assay [10]; 16 µg/mL in assay [11]; 2 µg/mL in assay [12]. Moreover, the MIC in [13] was 0.13 µg/mL; in assay [14], 125 µg/mL; in assay [15] it was 8 µg/mL; in assay [16] it was greater than 125 µg/mL; in assay [17], 2 µg/mL; in assay [18] it was 2 µg/mL. The figures for the MIC in assay [19] and in [20] were 0.06 µg/mL and 1 µg/mL, respectively.
As for `CSc1nnc(C2=C(C(=O)O)N3C(=O)CC3S2)o1` (centres unmarked) [Example 56, Sodium 3-(5-Methylthio-1,3,4-oxadiazol-2-yl)penem-3-carboxylate], the MIC in [1], in [2], in assay [3], in [4], in assay [5] and in [6] was greater than 125 µg/mL throughout. Moreover, the MIC in [7] is 125 µg/mL; in assay [8], greater than 125 µg/mL; in [9], greater than 63 µg/mL; in [10] it was greater than 125 µg/mL; in assay [11], greater than 125 µg/mL; in assay [12], greater than 125 µg/mL. Also, the MIC in assay [13] is 125 µg/mL; in [14], 125 µg/mL; in assay [15], greater than 125 µg/mL; in [16], greater than 125 µg/mL; in assay [17], greater than 125 µg/mL; in [18], greater than 125 µg/mL. For the same compound, the MIC is 125 µg/mL in assay [19] and greater than 125 µg/mL in assay [20].
Consider `COP(=O)(CCC1=C(C(=O)O)N2C(=O)CC2S1)OC` (centres unmarked) [Example 57], for which the “Minimum Inhibitory Concentration (M.I.C.)” value in assay [1] was greater than 125 µg/mL; in [2] (K. pneumoniae A15130), 125 µg/mL; in [3], 63 µg/mL; in assay [4] (Serratia marcescens A20019), 63 µg/mL; in assay [5] (Staph. aureus A9606 (Pen-Res)), 125 µg/mL; in assay [6] (Proteus morganii A15153), 32 µg/mL. For the same compound, the “Minimum Inhibitory Concentration (M.I.C.)” value was 125 µg/mL in [7] (Pseudomonas aeruginosa A9843A); 125 µg/mL in assay [8] (Enterobacter cloacae A9659); 16 µg/mL in assay [9]; 16 µg/mL in assay [10]; greater than 125 µg/mL in assay [11] (Staph. aureus A15097 (Meth-Res)); 16 µg/mL in [12] (E. coli A15119). In addition, the “Minimum Inhibitory Concentration (M.I.C.)” value was “.13 µg/mL” in assay [13] (Str. pyogenes A9604); 125 µg/mL in [14]; 125 µg/mL in [15] (Str. faecalis A20688); greater than 125 µg/mL in assay [16]; 63 µg/mL in assay [17]; 8 µg/mL in [18] (Proteus mirabilis A9900). For the same compound, the “Minimum Inhibitory Concentration (M.I.C.)” value is “.06 µg/mL” in assay [19] (Str. pneumoniae A9585) and 1 µg/mL in assay [20] (Staph. aureus A9537).
Consider `CC(C)OP(=O)(CCC1=C(C(=O)O)N2C(=O)CC2S1)OC(C)C` (centres unmarked) [Preparation 54], for which the MIC in assay [1] was 32 µg/mL (≈ 88.1 µM); in assay [2] it was greater than 125 µg/mL; in [3] it was 32 µg/mL (≈ 88.1 µM); in [4], 125 µg/mL (≈ 344 µM); in assay [5], greater than 125 µg/mL; in [6] it was 125 µg/mL (≈ 344 µM). Also, the MIC in assay [7] turned out to be 125 µg/mL (≈ 344 µM); in assay [8], 125 µg/mL (≈ 344 µM); in assay [9], 32 µg/mL; in assay [10], 125 µg/mL (≈ 344 µM); in [11] it was 63 µg/mL (≈ 173 µM); in assay [12], 63 µg/mL (≈ 173 µM). In addition, the MIC in assay [13] was 125 µg/mL (≈ 344 µM); in assay [14], 125 µg/mL (≈ 344 µM); in assay [15], 63 µg/mL (≈ 173 µM); in assay [16] it was 63 µg/mL (≈ 173 µM); in assay [17], greater than 125 µg/mL; in assay [18], 125 µg/mL (≈ 344 µM). Besides, the MIC in assay [19] is 63 µg/mL (≈ 173 µM); in assay [20] it was 32 µg/mL (≈ 88.1 µM).
